From patent publication US10800772B2 (Gilead Sciences, Inc., priority 2016, dated 2020)
pEC50: −log10 of the molar value.

How the values were obtained:
[1] = test system: HIV-IIIb IN T174I DE; test: Antiviral assay in MT4 cells, HIV-IIIb IN T174I DE virus (from dose escalation passaging); format: cell-based, HIV-1; conditions: Human immunodeficiency virus 1, IIIB, MT4, 120 h, read-out: T174I DE EC50, MT4 cells, HIV-IIIb IN T174I DE (dose escalation), 5 days, CellTiter-Glo
Summary of the method: (§1)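 MT4 cells were pre-infected for 3 h at 37 °C with HIV-IIIb (0.004 m.o.i.), then plated at 2000 cells per well with 3-fold serially diluted compound (10 concentrations, quadruplicate). After 5 days at 37 °C, CellTiter-Glo luminescence was read, and EC50 was taken as the concentration giving a 50% decrease in signal.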

[2] = test system: HIV-IIIb IN T174I BT; test: Antiviral assay in MT4 cells, HIV-IIIb IN T174I BT virus (from viral breakthrough); format: cell-based, HIV-1; conditions: Human immunodeficiency virus 1, IIIB, MT4, 120 h, read-out: T174I BT EC50, MT4 cells, HIV-IIIb IN T174I BT (viral breakthrough), 5 days, CellTiter-Glo
Summary of the method: as §1

[3] = test system: HIV-IIIb (wildtype); test: Antiviral assay in MT4 cells, HIV-IIIb wildtype; format: cell-based, HIV-1; conditions: Human immunodeficiency virus 1, IIIB, MT4, 120 h, read-out: WT EC50
Summary of the method: as §1

[4] = Hum MS stability (human microsomal stability half-life); conditions: human microsomes

Row | SMILES | pEC50 [1] | pEC50 [2] | pEC50 [3] | half-life [4] [h]
1 | COCCN1CCCC(c2nn(C)c3ccc(-c4nc5cc(C)c([C@H](OC(C)(C)C)C(=O)O)c(-c6ccc(Cl)cc6)c5s4)cc23)C1 (stereo partly drawn) [Compound 77, (2S)-2-(tert-butoxy)-2-(7-(4-chlorophenyl)-2-(3-(1-(2-methoxyethyl)piperidin-3-yl)-1-methyl-1H-indazol-5-yl)-5-methylbenzo[d]thiazol-6-yl)acetic acid] | 5.49 | 5.74 | 8.05 | 2.17
2 | Cc1cc2nc(-c3ccc4c(c3)c(N3CCN(C)C3=O)nn4C)sc2c(-c2ccc(Cl)cc2)c1[C@H](OC(C)(C)C)C(=O)O [Compound 80, (S)-2-(tert-butoxy)-2-(7-(4-chlorophenyl)-5-methyl-2-(1-methyl-3-(3-methyl-2-oxoimidazolidin-1-yl)-1H-indazol-5-yl)benzo[d]thiazol-6-yl)acetic Acid] | 5.64 | 5.82 | 7.89 | 5.42
3 | Cc1cc2nc(-c3ccc4c(c3)c(N3CC[C@@H](N(C)C)C3)nn4C)sc2c(-c2ccc(Cl)cc2)c1[C@H](OC(C)(C)C)C(=O)O [Compound 92, (S)-2-(tert-butoxy)-2-(7-(4-chlorophenyl)-2-(3-((R)-3-(dimethylamino)pyrrolidin-1-yl)-1-methyl-1H-indazol-5-yl)-5-methylbenzo[d]thiazol-6-yl)acetic acid] | 5.71 | 6.03 | 7.85 | 6.05
4 | COCCN1CCN(c2nn(C)c3ccc(-c4nc5cc(C)c([C@H](OC(C)(C)C)C(=O)O)c(-c6ccc(Cl)cc6)c5s4)cc23)CC1 [Compound 98, (S)-2-(tert-butoxy)-2-(7-(4-chlorophenyl)-2-(3-(4-(2-methoxyethyl)piperazin-1-yl)-1-methyl-1H-indazol-5-yl)-5-methylbenzo[d]thiazol-6-yl)acetic acid] | 6.29 | 6.54 | 8.40 | 3.17
5 | CCOCCN1CCN(c2nn(C)c3ccc(-c4nc5cc(C)c([C@H](OC(C)(C)C)C(=O)O)c(-c6ccc(Cl)cc6)c5s4)cc23)CC1 [Compound 99, (S)-2-(tert-butoxy)-2-(7-(4-chlorophenyl)-2-(3-(4-(2-ethoxyethyl)piperazin-1-yl)-1-methyl-1H-indazol-5-yl)-5-methylbenzo[d]thiazol-6-yl)acetic Acid] | 6.12 | 6.31 | 8.22 | 4.33
6 | Cc1cc2nc(-c3ccc4c(c3)c(N3CCN(CC5CC5)CC3)nn4C)sc2c(-c2ccc(Cl)cc2)c1[C@H](OC(C)(C)C)C(=O)O [Compound 100, (S)-2-(tert-butoxy)-2-(7-(4-chlorophenyl)-2-(3-(4-(cyclopropylmethyl)piperazin-1-yl)-1-methyl-1H-indazol-5-yl)-5-methylbenzo[d]thiazol-6-yl)acetic acid] | 5.45 | 5.73 | 8.00 | 3.23
7 | Cc1cc2nc(-c3ccc4c(c3)c(N3CCN(C)CC3)nn4C)sc2c(-c2ccc(Cl)cc2)c1[C@H](OC1CC1)C(=O)O [Compound 103, (S)-2-(7-(4-chlorophenyl)-5-methyl-2-(1-methyl-3-(4-methylpiperazin-1-yl)-1H-indazol-5-yl)benzo[d]thiazol-6-yl)-2-cyclopropoxyacetic acid] | 6.44 | 6.57 | 7.49 | 2.47
8 | Cc1cc2nc(-c3ccc4c(c3)c(N3CC(C)(C)N(C)C3=O)nn4C)sc2c(-c2ccc(Cl)cc2)c1[C@H](OC(C)(C)C)C(=O)O [Compound 122, (S)-2-(tert-butoxy)-2-(7-(4-chlorophenyl)-5-methyl-2-(1-methyl-3-(3,4,4-trimethyl-2-oxoimidazolidin-1-yl)-1H-indazol-5-yl)benzo[d]thiazol-6-yl)acetic acid] | 5.42 | 5.84 | 7.85 | 4.48
9 | COCCN1C(=O)N(c2nn(C)c3ccc(-c4nc5cc(C)c([C@H](OC(C)(C)C)C(=O)O)c(-c6ccc(Cl)cc6)c5s4)cc23)CC1(C)C [Compound 123, (S)-2-(tert-butoxy)-2-(7-(4-chlorophenyl)-2-(3-(3-(2-methoxyethyl)-4,4-dimethyl-2-oxoimidazolidin-1-yl)-1-methyl-1H-indazol-5-yl)-5-methylbenzo[d]thiazol-6-yl)acetic acid] | 5.15 | 5.84 | 7.96 | 1.6
10 | COCCN1CCC(c2nn(C)c3ccc(-c4nc5cc(C)c([C@H](OC(C)(C)C)C(=O)O)c(-c6ccc(Cl)cc6)c5s4)cc23)CC1 [Compound 125, (S)-2-(tert-butoxy)-2-(7-(4-chloro-phenyl)-2-(3-(1-(2-methoxyethyl)piperidin-4-yl)-1-methyl-1H-indazol-5-yl)-5-methylbenzo[d]thiazol-6-yl) acetic acid] | 6.15 | 6.40 | 8.10 | 4.38
11 | COC1(C)CN(c2nn(C)c3ccc(-c4nc5cc(C)c([C@H](OC(C)(C)C)C(=O)O)c(-c6ccc(Cl)cc6)c5s4)cc23)C1 [Compound 131, (S)-2-(tert-butoxy)-2-(7-(4-chloro-phenyl)-2-(3-(3-methoxy-3-methylazetidin-1-yl)-1-methyl-1H-indazol-5-yl)-5-methylbenzo[d]thiazol-6-yl) acetic acid] | 5.43 | 5.10 | 8.00 | 4.15
12 | CCN1CCN(c2nn(C)c3ccc(-c4nc5cc(C)c([C@H](OC(C)(C)C)C(=O)O)c(-c6ccc(Cl)cc6)c5s4)cc23)CC1 [Compound 133, (S)-2-(tert-butoxy)-2-(7-(4-chloro-phenyl)-2-(3-(4-ethylpiperazin-1-yl)-1-methyl-1H-indazol-5-yl)-5-methylbenzo[d]thiazol-6-yl) acetic acid] | 6.36 | 6.36 | 8.52 | 5.82
13 | COCCOC1CN(c2nn(C)c3ccc(-c4nc5cc(C)c([C@H](OC(C)(C)C)C(=O)O)c(-c6ccc(Cl)cc6)c5s4)cc23)C1 [Compound 134, (S)-2-(tert-butoxy)-2-(7-(4-chloro-phenyl)-2-(3-(3-(2-methoxyethoxy)azetidin-1-yl)-1-methyl-1H-indazol-5-yl)-5-methylbenzo[d]thiazol-6-yl) acetic acid] | 5.65 | 5.93 | 7.89 | 1.48
14 | COCCN(C)C1CN(c2nn(C)c3ccc(-c4nc5cc(C)c([C@H](OC(C)(C)C)C(=O)O)c(-c6ccc(Cl)cc6)c5s4)cc23)C1 [Compound 145, (S)-2-(tert-butoxy)-2-(7-(4-chloro-phenyl)-2-(3-(3-((2-methoxyethyl) (methyl)amino)azetidin-1-yl)-1-methyl-1H-indazol-5-yl)-5-methylbenzo[d]thiazol-6-yl) acetic acid] | 5.66 | 5.80 | 7.92 | 2.15
15 | Cc1cc2nc(-c3ccc4c(c3)c(C3CCN(C5CC(O)C5)CC3)nn4C)sc2c(-c2ccc(Cl)cc2)c1[C@H](OC(C)(C)C)C(=O)O (stereo partly drawn) [Compound 156, (S)-2-(tert-butoxy)-2-(7-(4-chloro-phenyl)-2-(3-(1-((1s,3s)-3-hydroxy-cyclobutyl)piperidin-4-yl)-1-methyl-1H-indazol-5-yl)-5-methylbenzo[d]thiazol-6-yl) acetic acid] | 6.71 | 6.90 | 7.96 | 4.95
16 | Cc1cc2nc(-c3ccc4c(c3)c(C3CCN([C@H]5CCN(C)C5)CC3)nn4C)sc2c(-c2ccc(Cl)cc2)c1[C@H](OC(C)(C)C)C(=O)O [Compound 163, (S)-2-(tert-butoxy)-2-(7-(4-chloro-phenyl)-5-methyl-2-(1-methyl-3-(1-((S)-1-methyl-pyrrolidin-3-yl)piperidin-4-yl)-1H-indazol-5-yl)benzo[d]thiazol-6-yl)acetic acid] | 6.49 | 6.69 | 7.70 | 2.12
17 | CC(=O)N1CC[C@H](N2CCC(c3nn(C)c4ccc(-c5nc6cc(C)c([C@H](OC(C)(C)C)C(=O)O)c(-c7ccc(Cl)cc7)c6s5)nc34)CC2)C1 [Compound 170, (S)-2-(2-(3-(1-((S)-1-acetyl-pyrrolidin-3-yl)piperidin-4-yl)-1-methyl-1H-pyrazolo[4,3-b]pyridin-5-yl)-7-(4-chlorophenyl)-5-methylbenzo [d]thiazol-6-yl)-2-(tert-butoxy) acetic acid] | 6.95 | 7.24 | 8.70 | 0.533
18 | Cc1cc2nc(-c3ccc4c(n3)c(C3CCN([C@H]5CCN(C)C5)CC3)nn4C)sc2c(-c2ccc(Cl)cc2)c1[C@H](OC(C)(C)C)C(=O)O [Compound 172, (S)-2-(tert-butoxy)-2-(7-(4-chloro-phenyl)-5-methyl-2-(1-methyl-3-(1-((S)-1-methyl-pyrrolidin-3-yl)piperidin-4-yl)-1H-pyrazolo[4,3-b]pyridin-5-yl)benzo[d]thiazol-6-yl)acetic acid] | 6.93 | 7.27 | 8.30 | 0.933
19 | Cc1cc2nc(-c3ccc4c(n3)c(C3CCN(CCN(C)C)CC3)nn4C)sc2c(-c2ccc(Cl)cc2)c1[C@H](OC(C)(C)C)C(=O)O [Compound 173, (S)-2-(tert-butoxy)-2-(7-(4-chloro-phenyl)-2-(3-(1-(2-(dimethylamino)ethyl)piperidin-4-yl)-1-methyl-1H-pyrazolo[4,3-b]pyridin-5-yl)-5-methylbenzo[d]thiazol-6-yl) acetic acid] | 7.05 | 7.35 | 8.70 | 1.2
